US8921268B2, “Herbicidal composition” (Sumitomo Chemical Company, Limited, priority 2012, dated 2014)

Columns and labels:
Ipomoea hederacea = assay: Pre-emergence soil spray pot test, herbicidal activity (Example 2); assay type: in vivo; conditions: scale 0 to 100; 20 g/ha; soil spray on day of sowing; ten days after spray treatment; greenhouse
Description: (§1) Ipomoea hederacea was sowed on a plastic pot filled with a soil. Following the sowing, on the day of the sowing, a mixed liquid of flumioxazin, isoxaflutole, and cyprosulfamide was sprayed uniformly so that the amounts of the agents might become those shown in Table 2 in a sprayed water amount of 500 L/ha. The mixed liquid of flumioxazin, isoxaflutole, and cyprosulfamide was prepared by dissolving the respective compounds in prescribed amounts separately in acetone containing 2% (w/v) of Tween 20 (surfactant, produced by Tokyo Chemical Industry Co., Ltd.), diluting the respective solutions with water and then combining them, followed by dilution with water so that the final acetone concentration of the spray liquid might be 10% by volume. After the spray treatment, the pot was carried into a greenhouse. Ten days after the spray treatment, the herbicidal activity to Ipomoea hederacea was evaluated.

Echinochloa crus-galli = assay: Pre-emergence soil spray pot test, herbicidal activity (Example 3); assay type: in vivo; conditions: scale 0 to 100; 2 g/ha; soil spray on day of sowing; twenty days after spray treatment; greenhouse
Description: as §1, with “Echinochloa crus-galli was” for “Ipomoea hederacea was”, “Table 3” for “Table 2”, “greenhouse. Twenty” for “greenhouse. Ten”, “to Echinochloa crus-galli” for “to Ipomoea hederacea”

## C#CCN1C(=O)COc2cc(F)c(N3C(=O)C4=C(CCCC4)C3=O)cc21 [Flumioxazin]
Ipomoea hederacea
  Herbicidal activity Ipomoea hederacea: 80
Echinochloa crus-galli
  Herbicidal activity Echinochloa crus-galli: 10
